Measurements published in ChEMBL document CHEMBL1138946, “Toward stable N4-modified neurotensins for NTS1-receptor-targeted tumor imaging with 99mTc” (J Med Chem, 2006).
Starred links: 1 amine or outer side, 2 acyl side, 3 side chain; linkers in the order of their positions; H or OH if unused. Non-standard residues stand in square brackets, D forms with d. Residues, ends and D or L forms follow the SMILES beside them. Groups on a side chain read outwards from the residue. *: point of attachment. X1 = NC(N)=NCCCC(CN([C@@H](CCCN=C(N)N)C(=O)[*:2])[*:1])N[*:3]; X3 = NCCCCC(CN([C@@H](CCCN=C(N)N)C(=O)[*:2])[*:1])N[*:3]; Tle = CC(C)(C)[C@H](N)C(=O)O; X2 = NCCNCC(CNCCN)C(=O)*

Assays:
[1] = biological target: T1, Neurotensin receptor type 1 (Homo sapiens, UniProt P30989); assay: Displacement of [125I]Tyr3-NT from human NTS1R expressed in HT29 cells; type: cell-based, HT-29
T1 sequence (P30989 whole entry): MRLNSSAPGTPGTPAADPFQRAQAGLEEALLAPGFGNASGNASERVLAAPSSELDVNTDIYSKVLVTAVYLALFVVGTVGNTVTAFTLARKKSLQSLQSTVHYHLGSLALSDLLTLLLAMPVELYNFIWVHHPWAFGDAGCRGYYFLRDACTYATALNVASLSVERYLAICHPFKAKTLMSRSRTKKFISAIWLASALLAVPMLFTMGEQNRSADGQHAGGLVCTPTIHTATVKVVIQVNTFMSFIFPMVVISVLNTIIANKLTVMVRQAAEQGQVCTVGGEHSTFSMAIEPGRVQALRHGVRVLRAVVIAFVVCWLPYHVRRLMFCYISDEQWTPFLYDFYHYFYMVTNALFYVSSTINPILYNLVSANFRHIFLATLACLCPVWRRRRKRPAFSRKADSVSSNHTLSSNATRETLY

[2] = biological target: T1, Neurotensin receptor type 1; assay: Displacement of [125I]Tyr3-NT from human NTS1R expressed in WiDr cells; type: cell-based
[3] = biological target: T1, Neurotensin receptor type 1; assay: Displacement of [125I]Tyr3-NT from NTS1R in human exocrine ductal pancreatic carcinoma

Row | SMILES | IC50 [1] | IC50 [2] | IC50 [3]
1 | CC[C@H](C)[C@H](NC(=O)[C@H](Cc1ccc(O)cc1)NC(=O)[C@@H]1CCCN1C(=O)[C@H](CCCN=C(N)N)NCC(CCCCN)NC(=O)CNC(=O)C(CNCCN)CNCCN)C(=O)N[C@@H](CC(C)C)C(=O)O (stereo partly drawn) [DEMOTENSIN 2] (H-[X3]([Gly-X2])PYIL-OH) | 0.41 nM | 0.18 nM | 
2 | CC(C)C[C@H](NC(=O)[C@@H](NC(=O)[C@H](Cc1ccc(O)cc1)NC(=O)[C@@H]1CCCN1C(=O)[C@H](CCCN=C(N)N)NCC(CCCCN)NC(=O)CNC(=O)C(CNCCN)CNCCN)C(C)(C)C)C(=O)O (stereo partly drawn) [DEMOTENSIN 3] (H-[X3]([Gly-X2])PY[Tle]L-OH) | 1.5 nM | 0.66 nM | 
3 | CC(C)C[C@H](NC(=O)[C@@H](NC(=O)[C@H](Cc1ccc(O)cc1)NC(=O)[C@@H]1CCCN1C(=O)[C@H](CCCN=C(N)N)NCC(CCCN=C(N)N)NC(=O)CNC(=O)C(CNCCN)CNCCN)C(C)(C)C)C(=O)O (stereo partly drawn) [DEMOTENSIN 4] (H-[X1]([Gly-X2])PY[Tle]L-OH) | 0.85 nM | 0.51 nM | 2.9 nM
4 | CC[C@H](C)[C@H](NC(=O)[C@H](Cc1ccc(O)cc1)NC(=O)[C@@H]1CCCN1C(=O)[C@H](CCCN=C(N)N)NC(=O)[C@H](CCCN=C(N)N)NC(=O)CNC(=O)C(CNCCN)CNCCN)C(=O)N[C@@H](CC(C)C)C(=O)O [Demotensin 1] (X2-GRRPYIL-OH) | 0.32 nM |  | 
